Key:
CYP2C8 [1] = assay: In vitro free fraction by rapid equilibrium dialysis; assay type: in vitro ADME; details: human, pH 7.4, fu (IC50 assay), CYP2C8, conditions of CYP2C8 IC50 assay
[2] = following topical administration; ref [64]–[73]; cited from earlier work
[3] = unbound fraction in plasma; ref [64]–[73]; cited from earlier work
CYP26A1 [4] = details: in vitro; ref [97]; cited from earlier work
CYP26A1 [5] = target: T1, CYP26A1 (Homo sapiens, UniProt O43174); assay: Spectral binding determination, CYP26A1
T1 sequence (O43174 1-497): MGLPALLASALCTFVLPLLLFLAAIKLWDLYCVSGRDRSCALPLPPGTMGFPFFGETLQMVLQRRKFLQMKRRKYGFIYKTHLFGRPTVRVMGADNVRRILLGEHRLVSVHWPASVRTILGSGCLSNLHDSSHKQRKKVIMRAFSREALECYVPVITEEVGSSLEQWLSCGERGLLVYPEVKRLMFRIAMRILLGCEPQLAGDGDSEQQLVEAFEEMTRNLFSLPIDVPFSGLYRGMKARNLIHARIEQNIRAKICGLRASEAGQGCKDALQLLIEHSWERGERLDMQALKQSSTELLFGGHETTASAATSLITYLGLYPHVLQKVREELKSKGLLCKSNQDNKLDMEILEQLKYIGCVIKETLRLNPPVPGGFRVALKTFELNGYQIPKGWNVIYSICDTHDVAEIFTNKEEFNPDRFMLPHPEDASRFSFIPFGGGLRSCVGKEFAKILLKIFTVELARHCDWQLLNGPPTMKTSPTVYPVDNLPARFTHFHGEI

CYP26B1 [6] = target: T2, CYP26B1 (Homo sapiens, UniProt Q9NR63); assay: Inhibition of CYP26B1-catalyzed tazarotenic acid sulfoxide formation; assay type: biochemical
T2 sequence (Q9NR63 1-512): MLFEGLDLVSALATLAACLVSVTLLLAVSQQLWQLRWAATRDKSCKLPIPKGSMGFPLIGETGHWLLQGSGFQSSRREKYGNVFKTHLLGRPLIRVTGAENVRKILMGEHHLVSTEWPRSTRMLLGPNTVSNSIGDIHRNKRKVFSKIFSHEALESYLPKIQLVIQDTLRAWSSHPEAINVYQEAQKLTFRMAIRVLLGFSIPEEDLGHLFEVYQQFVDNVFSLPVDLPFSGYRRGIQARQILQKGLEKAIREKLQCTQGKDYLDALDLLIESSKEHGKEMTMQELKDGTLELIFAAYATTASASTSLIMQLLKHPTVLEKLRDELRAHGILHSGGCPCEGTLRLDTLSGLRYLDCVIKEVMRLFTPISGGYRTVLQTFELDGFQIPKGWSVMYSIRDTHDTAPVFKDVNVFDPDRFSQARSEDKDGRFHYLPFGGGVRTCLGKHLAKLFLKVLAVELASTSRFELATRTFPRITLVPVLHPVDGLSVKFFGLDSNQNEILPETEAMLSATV

CYP26A1 [7] = target: T1, CYP26A1; assay: Inhibition of CYP26A1-catalyzed tazarotenic acid sulfoxide formation; assay type: biochemical
CYP2C8 [8] = target: T3, CYP2C8 (Homo sapiens, UniProt P10632); assay: Spectral binding determination, CYP2C8; details: UV-difference spectra
T3 sequence (P10632 1-490): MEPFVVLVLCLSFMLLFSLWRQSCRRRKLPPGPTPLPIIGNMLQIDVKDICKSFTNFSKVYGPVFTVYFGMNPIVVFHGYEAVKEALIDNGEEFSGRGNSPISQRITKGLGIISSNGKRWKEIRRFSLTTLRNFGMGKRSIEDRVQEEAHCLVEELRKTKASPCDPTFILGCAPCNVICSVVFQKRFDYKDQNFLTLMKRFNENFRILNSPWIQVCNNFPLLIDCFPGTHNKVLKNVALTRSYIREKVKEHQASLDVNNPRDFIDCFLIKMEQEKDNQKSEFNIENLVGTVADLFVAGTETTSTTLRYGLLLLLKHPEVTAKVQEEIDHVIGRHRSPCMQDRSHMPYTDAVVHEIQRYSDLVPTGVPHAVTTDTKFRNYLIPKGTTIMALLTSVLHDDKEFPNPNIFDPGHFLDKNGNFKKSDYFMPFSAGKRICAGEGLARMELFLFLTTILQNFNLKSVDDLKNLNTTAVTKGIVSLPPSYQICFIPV

[9] = human, in vivo
CYP26B1 [10] = target: T2, CYP26B1; assay: Spectral binding determination, CYP26B1

In the case of `Clc1ccccc1C(c1ccccc1)(c1ccccc1)n1ccnc1` [Clotrimazole], the fraction unbound at 12 h, 1 μM (CYP2C8 [1]) is listed as 0.155 ± 0.024, the Total skin concentration [2] is listed as 67.3 µM and the “fu,plasma” value [3] is listed as 0.100. The “Inhibition of CYP26A1-catalyzed 4-hydroxyretinoic acid formation” value (CYP26A1 [4]) was “not be inhibitors”, the Kd (CYP26A1 [5]; Ks (spectral binding constant), CYP26A1, 500 nM protein, ± standard error) was 533 ± 71.8 nM and the Kd (CYP26A1 [5]; Ks,unb CYP26A1, Ks corrected for nonspecific binding) was 13.3 nM. The “Binding mechanism, CYP26A1” value (CYP26A1 [5]; UV-difference spectra) was “Type II”, the IC50 (CYP26B1 [6]; CYP26B1 IC50, probe tazarotenic acid) was 50.1 ± 12.1 nM and the IC50 (CYP26B1 [6]; CYP26B1 IC50, tazarotenic acid, recombinant CYP26B1, probe tazarotenic acid sulfoxide formation, ± standard error) was 50 ± 10 nM. It also gave an IC50 (CYP26B1 [6]; IC50,unb CYP26B1, IC50 corrected for unbound fraction in the assay) of 21.5 nM, an IC50 (CYP26A1 [7]; CYP26A1 IC50, probe tazarotenic acid) of 24.7 ± 8.1 nM and an IC50 (CYP26A1 [7]; CYP26A1 IC50, tazarotenic acid, recombinant CYP26A1, probe tazarotenic acid sulfoxide formation, ± standard error) of 20 ± 10 nM. For the same molecule, the IC50 (CYP26A1 [7]; IC50,unb CYP26A1, IC50 corrected for unbound fraction in the assay) was 16.3 nM, the “Binding mechanism, CYP2C8” value (CYP2C8 [8]) was “Type II” and the “Cmax,u (skin)” value [9] was 6.73 µM. The Kd (CYP26B1 [10]; Ks (spectral binding constant), CYP26B1, 500 nM protein, ± standard error) was 4950 ± 640 nM, the Kd (CYP26B1 [10]; Ks,unb CYP26B1, Ks corrected for nonspecific binding) was 24.7 nM and the “Binding mechanism, CYP26B1” value (CYP26B1 [10]; UV-difference spectra) was “Type II”.

Source: paper PMC6628712 (Journal of enzyme inhibition and medicinal chemistry, 2016)
